Results taken from patent publication US8318815B2, “Method for treatment of tumors using nordihydroguaiaretic acid derivatives” (priority 1999, dated 2012).
Like-named read-outs stand apart in the source and are kept apart here.

Tests used:
HSV-1 [1] = test: HSV-1 skin infection in guinea pig, topical treatment; format: in vivo; conditions: 30 μl of 60 mg/ml in DMSO, five times per day for six days
Procedure: The drug M4N was also tested in inhibition of HSV-1 replication in skin infections in guinea pigs. Guinea pig skin was pinched with needles and HSV-1 […] was applied topically to infect each pricked area. M4N was then applied to the pricked infected area following infection daily for 6 days.
Six areas of bared back skin of a guinea pig were punched sterilely with a 5=DIN needle. Two areas were infected with HSV-1 (HSV-C, culture supernatant, or isolated HSV in saline, HSV-SC). The other four areas were infected with HSV-SC.

HSV-1 [2] = conditions: cited from earlier work; for IC50: infected Vero cells
HSV-2 = conditions: infected Vero cells; fourth passage of HSV-2; cited from earlier work
[3] = Toxicity studies of G4N in mice; conditions: for Mortality: 6 days
Procedure: C57BL-16NCR female mice from NCI were used in this experiment.
Injections of 0.05 ml for group 1, 0.1 ml for groups 2 and 4, and 0.2 ml for group 3 per treatment were made for a period of 6 days. Experiments lasted seven days. Body weights were determined before and after six days of injection.

[4] = molecular target: Sp1-167D / HIV Sp1-binding sites (Homo sapiens, UniProt P08047); test: Gel mobility-shift analysis (EMSA) of Sp1-167D binding to HIV Sp1 DNA template; conditions: 0.25 to 1.75 mM
Chain of Sp1-167D / HIV Sp1-binding sites (P08047 619-785 limits assumed): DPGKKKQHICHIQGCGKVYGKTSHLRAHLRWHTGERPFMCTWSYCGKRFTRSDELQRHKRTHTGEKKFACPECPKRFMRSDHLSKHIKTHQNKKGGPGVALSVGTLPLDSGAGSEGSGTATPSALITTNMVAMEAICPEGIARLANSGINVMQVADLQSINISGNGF
Procedure: FIG. 13. Electrophoretic mobility shift assay (EMSA) of G4N interaction with the HIV Sp1-binding sites (−87 to −49). (A) G4N inhibition of Sp1-167D binding to ^32P labeled HIV Sp1 DNA template. […] Lane 1, template alone; lanes 2-4, template plus increasing amounts of Sp1-167D (0.075, 0.150, 0.300 μg); lanes 5-8, template incubated in reaction buffer containing 1.2 mM G4N followed by challenge with increasing amounts of Sp1-167D (0.075, 0.150, 0.300 μg), lane 8 received no Sp1-167D. (D) Plot of diminishing Sp1-167D/DNA complex band intensities in response to increasing concentrations of G4N used in (A) ---•--- and (B) —•—. The gels used were 5% non-denaturing polyacrylamide with each lane receiving 5 μl of each reaction volume as described in experimental section and Ref. [1].
Sp1 family proteins induce bends toward the major groove of DNA upon binding (33). The zinc finger domain of the Sp1 protein is responsible for the binding of the GC Box sequence 5′-GGGGCGGGG-3′. From computational analysis, it was determined that G4N, the aminoester derivative of NDGA, could form a stable complex with such a sequence in the major groove. To determine whether G4N can serve as an Sp1 blocker as well as an Sp1 displacer, we performed Sp1/enhancer interaction studies in the presence or absence of G4N by the gel mobility-shift analysis using only the […] binding domain of Sp1 for testing. […]

HIV-1RTMF = test: HIV-1 production in H9 cells, p24 antigen capture ELISA; format: cell-based; conditions: p24, AZT resistant strain, read-out: IC50 for the inhibition of HIV-1 RTMF
Procedure: FIG. 16. Inhibition of HIV p24 antigen production in H9 cells by G4N. Inhibition in percentage was calculated by comparing p24 level from an average of two duplicate cultures of G4N treated and not treated H9 cells 9 days following viral infection with a AZT resistant HIV strain, HIV-1RTMF.
(§1) A similar experiment was also carried out for the study of inhibition of HIV-1 by G4N in H9 cells. The H9 cells were subcultured at 1×10^5/ml and were infected with an AZT resistant strain of HIV-1(HIV-1RTMF). G4N in different concentrations was added two hours after infection. Fresh medium change was made every four days. Cell growth in the presence of G4N was monitored carefully during the nine-day experimental period. Viral production was assayed by a p24 core antigen capture ELISA. […] Again, there was no detectable toxicity to uninfected H9 cells within the range of the assay (and below 250 μM).

H9 cells = format: cell-based
Procedure: as §1

SIVmac 239 = test: SIV production in 174×CEM cells, p27 antigen capture ELISA; format: cell-based
Procedure: FIG. 15. SIV production with presence of G4N. 10^7 […], a human T-cell lymphoma cell line, were mixed with a 24 hrs. harvest stock of SIV mac 239 (4 ng of p27) for two hours at 37. Cells were resuspended and 1×10^5 cells in 100 μl medium were added to each well of three 96-well plates. Various concentrations of G4N from a freshly made stock were prepared and added to each of the six designed well. Culture supernatants were collected after four and eight days for viral production analysis. Viral production was assayed by a modified p27 capsid protein antigen capture ELISA as described in experimental section.
Both HIV-1 and SIV are retroviruses that require integration into the host genome to complete their replication. Both rely on host transcription factors for their proviral transcriptions. Sp1 plays a central role for such expression in these two viruses sharing an almost identical mode of transcription regulation. […] There was no SIV production detected using G4N in concentrations above […]. At G4N concentrations below 2.5 CIM, SIV production was detected (FIG. 15) in culture supernatants from 4th and 8th days post infected cultures as compared to viral production in the absence of the drug.

174×CEM cells = format: cell-based, human
Source text: Both HIV-1 and SIV are retroviruses that require integration into the host genome to complete their replication. Both rely on host transcription factors for their proviral transcriptions. Sp1 plays a central role for such expression in these two viruses sharing an almost identical mode of transcription regulation. In anticipation of using SIV infected rhesus monkeys as animal model for testing the antiviral effect of G4N, we have studied and compared the G4N effect in inhibition of SIV in 174×CEM cells with that of HIV in H9 cells. Cellular toxicities of G4N in these two cell lines were also examined. For SIV inhibition study, 10^7 174×CEM cells were mixed with high titer stock of SIVmac 239 at 37° C. for two hours and then washed twice with cold PBS buffer to remove the unabsorbed virus. Cell suspension was aliquoted into each well of three 96 well plates. Various concentrations of the G4N solutions were made from freshly prepared stock and aliquoted separately and each to six wells in a column of one 96 well plate. Culture supernatants were collected every four days post infection. […] There was no SIV production detected using G4N in concentrations above […]. At G4N concentrations below 2.5 CIM, SIV production was detected (FIG. 15) in culture supernatants from 4th and 8th days post infected cultures as compared to viral production in the absence of the drug.

[5] = system: HIV LTR promoter (Tat-transactivation); test: Tat-transactivation of HIV promoter activity in Cos cells, SEAP assay; format: cell-based; conditions: read-out: IC50 for inhibition of HIV Tat-regulated transactivation
Source text: As reported previously, methylated NDGA derivatives can block Sp1 binding to the enhancer sites of a variety of viral promoters including HIV, ICP4 of HSV, E6/E7 gene of HPV (8, 9, 10). We further tested the G4N effect on the Tat-transactivation of HIV promoter activity in Cos cells by the SEAP assay as previously described. […] There were 60-fold or more increase in SEAP expression when Cos cells were cotransfected with the CMV promoter driven Tat gene (8). Such Tat-driven ransactivation of the HIV LTR promoter activity was previously shown to be Sp1 regulated (7, 8). In the presence of G4N, we observed inhibition of HIV transactivation in a dose-dependent fashion (FIG. 14). […]. The differences perhaps are due to the chemical nature of the test compounds affecting the drug uptake to the cells.

mammalian cells = conditions: low concentrations (10 μM); cited from earlier work

In the case of `Nc1nc2c(ncn2COCCO)c(=O)[nH]1` [ACV, acycloguanosine], the “blisters in HSV-1 infected skin areas at day 6” value (HSV-1 [1]) is listed as “no blisters”, the “drop of selective index, S.I. (TC50/IC50)” value (HSV-1 [2]; following the viral passages in Vero cells) is listed as 60 fold and the IC50 (HSV-1 [2]; first viral passage) is listed as 7 µM. For the same compound, the IC50 (HSV-1 [2]; tenth passage of HSV-1) was 444 µM and the IC50 (HSV-2) was > 88 µM.

For `C[C@H](Cc1ccc(OC(=O)CN(C)C)c(OC(=O)CN(C)C)c1)[C@@H](C)Cc1ccc(OC(=O)CN(C)C)c(OC(=O)CN(C)C)c1.Cl.Cl.Cl.Cl` [G4N, meso-1,4-Bis [3,4-(dimethylaminoacetoxy)phenyl]-(2R,3S)-dimethylbutane Chloride Salt], the Mortality ([3]; 187.5 mg/kg, Subcutaneous, 2× per day) was 0/3, the Mortality ([3]; 375 mg/kg, IV, 2× per day) was 0/2 and the Mortality ([3]; 375 mg/kg, Subcutaneous, 1× per day) was 0/3. For the same compound, the Mortality ([3]; 750 mg/kg, Subcutaneous, 1× per day) was 1/4, the “body weight changes during the experimental period” value ([3]; before and after six days of injection) was “No significant weight changes” and the “blocking and displacement of Sp1-167D binding to DNA” value [4] was “able keep DNA from interacting with Sp1-167D protein”. For the same compound, the IC50 (HIV-1RTMF) was 12 µM, the “concentration with no detectable toxicity to uninfected cells” value (H9 cells) was “below 250 μM” and the “concentrations at which no SIV production was detected” value (SIVmac 239) was “above 5 CIM”. For the same compound, the “concentrations at which SIV production was detected” value (SIVmac 239; 4th and 8th days post infection) was “below 2.5 CIM”, the “concentration with no toxic effect on uninfected cells” value (174×CEM cells) was ≤ 250 µM and the IC50 [5] was 36 µM.

`COc1cc(C[C@H](C)[C@H](C)Cc2ccc(O)c(O)c2)ccc1O` [Ma1.4, 3-O-methyl NDGA, reference compound] showed an IC50 [5] of 25 µM.

In the case of `CC(Cc1ccc(O)c(O)c1)C(C)Cc1ccc(O)c(O)c1` (stereo not shown) [NDGA, nordihydroguaiaretic acid], the “apoptosis in mammalian cells” value (mammalian cells) is given as “induce apoptosis”.
